US20150299182A1, “CRYSTALLINE FORMS OF (1S)-1-[5-(AMINO)-1,2,4-THIADIAZOL-3-YL]ETHANE-1,2-DIOL” (Array BioPharma Inc., priority 2012, published 2015)
“Also recorded” adds a separate entry of the source. Counter-ions that a name gives are not always drawn.

Assays:
[1] = Moisture balance / vapor sorption (hygroscopicity); assay type: physicochemical; conditions: for phase post vapor sorption experiment: based on XRPD results; for hygroscopicity: 5% to 95% relative humidity; for relative humidity above which the material is hygroscopic: vapor sorption curve; for sorbed water retained: upon drying back down to ambient relative humidity; for relative humidity by which the material fully re-hydrates: after drying to 5% relative humidity
Protocol: Moisture balance data was collected using a VTI SGA 100 or SGA CX symmetrical vapor sorption analyzer. Relative humidity was varied in increments or 5%, starting at 5% relative humidity thereby increasing to 95% relative humidity, and then undergoing a drying cycle back to 5% relative humidity. Equilibrium criteria was set at 0.01% weight change in 1 minute with a max equilibrium time of 180 minutes. Approximately 1-15 mg of sample was used.

[2] = 4 months
Protocol: (§1) Chemical and physical stability was initiated on these forms and samples were stored at 60° C., 40° C./75% RH, 25° C./60% RH, and 5° C.

[3] = Chemical and physical solid state stability on storage; conditions: for form change on storage: up to 4 months (phosphate salt up to 6 weeks)
Protocol: as §1

[4] = Storage at ambient conditions (form conversion); assay type: physicochemical; conditions: stored at ambient conditions
[5] = Thermal stability characteristics; assay type: physicochemical
Protocol: The thermal properties of AMG151 samples were characterized using a DSC Q1000 or DSC Q 100, TA Instruments, differential scanning calorimetry, and a TGA Q 500, TA Instruments, thermogravimetric analyzer. Data analysis was performed utilizing Universal Analysis 2000, TA Instruments. Heating rates of 10° C./min were used over a variety of temperature ranges for differential scanning calorimetry and thermogravimetric analysis. Samples ranging from <1-5 mg were prepared in crimped or open aluminum pans for DSC analysis.

[6] = Exposure to 95% relative humidity chamber/jar, then XRPD; assay type: physicochemical
Protocol: The DSC curve indicates a broad endotherm around 150° C. (attributed to desolvation), and one sharp endotherm around 193° C. (attributed to a melt). The TG curve indicates a 5.0% weight loss up to 175° C.
The phosphate salt Form D material was generated from desolvating Form C, and a representative XRPD pattern is shown in FIG. 34. The sample appears to be crystalline with an irregular morphology. The DSC curve indicates a sharp endotherm around 193° C. (attributed to a melt). […] The material appears to retain this sorbed water upon drying down to 15% relative humidity; however, upon reaching 5% relative humidity the material losses all of its sorbed water and returns to dry weight.

[7] = vapor sorption, as high as 95% relative humidity

## Cc1ncccc1Oc1cc(Sc2ccccn2)cnc1Nc1nc([C@H](O)CO)ns1 [Amorphous AMG151, (1S)-1-[5-({3-[(2-methylpyridin-3-yl)oxy]-5-(pyridin-2-ylsulfanyl)pyridin-2-yl}amino)-1,2,4-thiadiazol-3-yl]ethane-1,2-diol]
[1]
  phase post vapor sorption experiment: remained unchanged
[1]; vapor sorption
  hygroscopicity: hygroscopic

## Cc1ncccc1Oc1cc(Sc2ccccn2)cnc1Nc1nc([C@H](O)CO)ns1 [Form A, (1S)-1-[5-({3-[(2-methylpyridin-3-yl)oxy]-5-(pyridin-2-ylsulfanyl)pyridin-2-yl}amino)-1,2,4-thiadiazol-3-yl]ethane-1,2-diol]
[1]
  phase post vapor sorption experiment: remained unchanged
[1]; vapor sorption
  hygroscopicity: non-hygroscopic

## Cc1ncccc1Oc1cc(Sc2ccccn2)cnc1Nc1nc([C@H](O)CO)ns1 [Form F, (1S)-1-[5-({3-[(2-methylpyridin-3-yl)oxy]-5-(pyridin-2-ylsulfanyl)pyridin-2-yl}amino)-1,2,4-thiadiazol-3-yl]ethane-1,2-diol]
[2]
  time found chemically stable: up to 4 months
[3]; 40° C./75% RH
  form change on storage: no form change
[3]; 60° C., listed as free base form F
  form change on storage: no form change
[1]
  phase post vapor sorption experiment: remained unchanged
[1]; vapor sorption
  hygroscopicity: non-hygroscopic

## Cc1ncccc1Oc1cc(Sc2ccccn2)cnc1Nc1nc([C@H](O)CO)ns1 [Form G, (1S)-1-[5-({3-[(2-methylpyridin-3-yl)oxy]-5-(pyridin-2-ylsulfanyl)pyridin-2-yl}amino)-1,2,4-thiadiazol-3-yl]ethane-1,2-diol]
[4]
  form conversion on storage: readily convert to Form F

## Cc1ncccc1Oc1cc(Sc2ccccn2)cnc1Nc1nc([C@H](O)CO)ns1 [HCl salt Form A, (1S)-1-[5-({3-[(2-methylpyridin-3-yl)oxy]-5-(pyridin-2-ylsulfanyl)pyridin-2-yl}amino)-1,2,4-thiadiazol-3-yl]ethane-1,2-diol]
[1]
  phase post vapor sorption experiment: converted to an amorphous phase
  relative humidity above which the material is hygroscopic: above 55 % relative humidity
[1]; vapor sorption
  hygroscopicity: hygroscopic
[1]; [7]
  weight change: 9%

## Cc1ncccc1Oc1cc(Sc2ccccn2)cnc1Nc1nc([C@H](O)CO)ns1 [HCl salt Form B, (1S)-1-[5-({3-[(2-methylpyridin-3-yl)oxy]-5-(pyridin-2-ylsulfanyl)pyridin-2-yl}amino)-1,2,4-thiadiazol-3-yl]ethane-1,2-diol]
[1]
  phase post vapor sorption experiment: converted to an amorphous phase
  relative humidity above which the material is hygroscopic: above 75 % relative humidity
[1]; vapor sorption
  hygroscopicity: hygroscopic
[1]; [7]
  weight change: 20%

## Cc1ncccc1Oc1cc(Sc2ccccn2)cnc1Nc1nc([C@H](O)CO)ns1 [Hydrate Form C, (1S)-1-[5-({3-[(2-methylpyridin-3-yl)oxy]-5-(pyridin-2-ylsulfanyl)pyridin-2-yl}amino)-1,2,4-thiadiazol-3-yl]ethane-1,2-diol]
[3]; 40° C./75% RH
  form change on storage: no form change
[3]; 60° C.
  time after which conversion to Form A was found: 2 weeks
[3]; 60° C., listed as free base mono-hydrate
  form change on storage: converted to Form A
[1]
  phase post vapor sorption experiment: remained unchanged
[1]; from 5% to 95% relative humidity
  wt change: < 0.5%
[1]; vapor sorption
  hygroscopicity: non hygroscopic; also recorded: non-hygroscopic
[1]; [7]
  weight change: 0.25%

## Cc1ncccc1Oc1cc(Sc2ccccn2)cnc1Nc1nc([C@H](O)CO)ns1 [MSA salt Form B, (1S)-1-[5-({3-[(2-methylpyridin-3-yl)oxy]-5-(pyridin-2-ylsulfanyl)pyridin-2-yl}amino)-1,2,4-thiadiazol-3-yl]ethane-1,2-diol]
[1]
  stability of the phase as a function of relative humidity: unstable as a function of relative humidity
  phase post vapor sorption experiment: converted to Form C
  sorbed water retained: 2-3%
  relative humidity above which the material is hygroscopic: above 65 % relative humidity
[1]; vapor sorption
  hygroscopicity: hygroscopic
[1]; [7]
  weight change: 16.5%

## Cc1ncccc1Oc1cc(Sc2ccccn2)cnc1Nc1nc([C@H](O)CO)ns1 [MSA salt Form C, (1S)-1-[5-({3-[(2-methylpyridin-3-yl)oxy]-5-(pyridin-2-ylsulfanyl)pyridin-2-yl}amino)-1,2,4-thiadiazol-3-yl]ethane-1,2-diol]
[1]
  phase post vapor sorption experiment: remained unchanged
  sorbed water retained: 2-3%
  relative humidity above which the material is hygroscopic: above 75 % relative humidity
[1]; vapor sorption
  hygroscopicity: hygroscopic
[1]; [7]
  weight change: 18%

## Cc1ncccc1Oc1cc(Sc2ccccn2)cnc1Nc1nc([C@H](O)CO)ns1 [fumarate co-crystal Form A, (1S)-1-[5-({3-[(2-methylpyridin-3-yl)oxy]-5-(pyridin-2-ylsulfanyl)pyridin-2-yl}amino)-1,2,4-thiadiazol-3-yl]ethane-1,2-diol]
[3]; 40° C./75% RH
  form change on storage: no form change
[3]; 60° C.
  form change on storage: no form change
[1]
  phase post vapor sorption experiment: remained unchanged
[1]; vapor sorption
  hygroscopicity: non-hygroscopic
[1]; [7]
  weight change: 0.075%

## Cc1ncccc1Oc1cc(Sc2ccccn2)cnc1Nc1nc([C@H](O)CO)ns1 [mono-hydrochloride salt Form C, (1S)-1-[5-({3-[(2-methylpyridin-3-yl)oxy]-5-(pyridin-2-ylsulfanyl)pyridin-2-yl}amino)-1,2,4-thiadiazol-3-yl]ethane-1,2-diol]
[5]
  thermal stability: less preferred thermal stability characteristics
[1]; vapor sorption
  hygroscopicity: hygroscopic

## Cc1ncccc1Oc1cc(Sc2ccccn2)cnc1Nc1nc([C@H](O)CO)ns1 [phosphate salt Form A, (1S)-1-[5-({3-[(2-methylpyridin-3-yl)oxy]-5-(pyridin-2-ylsulfanyl)pyridin-2-yl}amino)-1,2,4-thiadiazol-3-yl]ethane-1,2-diol]
[1]
  relative humidity by which the material fully re-hydrates: ≤ 55 % relative humidity
  phase post vapor sorption experiment: remained unchanged
[1]; vapor sorption
  hygroscopicity: non-hygroscopic
[1]; [7]
  weight change: 0.8%

## Cc1ncccc1Oc1cc(Sc2ccccn2)cnc1Nc1nc([C@H](O)CO)ns1 [phosphate salt Form B, (1S)-1-[5-({3-[(2-methylpyridin-3-yl)oxy]-5-(pyridin-2-ylsulfanyl)pyridin-2-yl}amino)-1,2,4-thiadiazol-3-yl]ethane-1,2-diol]
[1]
  stability of the phase as a function of relative humidity: unstable as a function of ambient relative humidity
  phase post vapor sorption experiment: converted to Form A
[1]; upon drying down to 5% relative humidity
  weight loss upon drying: 8.5%
[1]; vapor sorption
  hygroscopicity: slightly hygroscopic
[1]; [7]
  weight change: 3.5%

## Cc1ncccc1Oc1cc(Sc2ccccn2)cnc1Nc1nc([C@H](O)CO)ns1 [phosphate salt Form C, (1S)-1-[5-({3-[(2-methylpyridin-3-yl)oxy]-5-(pyridin-2-ylsulfanyl)pyridin-2-yl}amino)-1,2,4-thiadiazol-3-yl]ethane-1,2-diol]
[6]
  form after exposure to 95% relative humidity: converted to Form A
[1]
  stability of the phase as a function of relative humidity: unstable as a function of ambient relative humidity

## Cc1ncccc1Oc1cc(Sc2ccccn2)cnc1Nc1nc([C@H](O)CO)ns1 [phosphate salt Form D, (1S)-1-[5-({3-[(2-methylpyridin-3-yl)oxy]-5-(pyridin-2-ylsulfanyl)pyridin-2-yl}amino)-1,2,4-thiadiazol-3-yl]ethane-1,2-diol]
[6]
  form after exposure to 95% relative humidity: convert to Form E
[1]
  stability of the phase as a function of relative humidity: unstable as a function of ambient relative humidity
  phase post vapor sorption experiment: remained unchanged
  relative humidity above which the material is hygroscopic: above 55 % relative humidity
[1]; around 75% relative humidity (appears to convert to a mono-hydrate)
  weight change: 3.0%
[1]; vapor sorption
  hygroscopicity: hygroscopic

## Cc1ncccc1Oc1cc(Sc2ccccn2)cnc1Nc1nc([C@H](O)CO)ns1 [phosphate salt Form E, (1S)-1-[5-({3-[(2-methylpyridin-3-yl)oxy]-5-(pyridin-2-ylsulfanyl)pyridin-2-yl}amino)-1,2,4-thiadiazol-3-yl]ethane-1,2-diol]
[1]
  stability of the phase as a function of relative humidity: unstable as a function of ambient relative humidity
  relative humidity by which the material fully re-hydrates: ≤ 65 % relative humidity
  relative humidity above which the material is hygroscopic: Above 65 % relative humidity
[1]; vapor sorption
  hygroscopicity: slightly hygroscopic

## Cc1ncccc1Oc1cc(Sc2ccccn2)cnc1Nc1nc([C@H](O)CO)ns1 [phosphate salt, (1S)-1-[5-({3-[(2-methylpyridin-3-yl)oxy]-5-(pyridin-2-ylsulfanyl)pyridin-2-yl}amino)-1,2,4-thiadiazol-3-yl]ethane-1,2-diol]
[3]; 40° C./75% RH
  time found stable: up to 6 weeks
  form change on storage: no form change
[3]; 60° C.
  time found stable: up to 6 weeks
  form change on storage: no form change
